This note sets out measurements from ChEMBL document CHEMBL1201862, “PubChem BioAssay data set” (2004).

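Cells were grown in 96-well plates and exposed to each compound for 48 hours at five concentrations; endpoints were interpolated linearly between bracketing concentrations, or set to the highest concentration if not reached. GI50: concentration for 50% inhibition of growth.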 Calls of active or inactive are those of the source. Rule as the data show it: active = GI50 up to about 1.1 µM and inactive = higher.

Common to all, as to test: NCI-60 cell line screen, 48 h
Experiment [1] has as its system COLO 205.
For experiment [2], the system named is HOP-62.
The test system of experiment [3] is KM12.
Experiment [4] concerns LOX IMVI.
The subject of experiment [5] is MCF7.
Experiment [6] has as its system MDA-MB-231.
Experiment [7] concerns Malme-3M.
Experiment [8] concerns NCI-H23.
Experiment [9] concerns NCI-H460.
Experiment [10] relates to OVCAR-4.
The test system of experiment [11] is OVCAR-5.
Experiment [12] relates to RPMI-8226.
Experiment [13] concerns RXF 393.
For experiment [14], the system named is SK-MEL-2.
In experiment [15] the test system is SN12C.
Experiment [16] deals with SNB-19.
Experiment [17] has as its system SR.
Experiment [18] relates to U-251.
Experiment [19] deals with UACC-62.
The subject of experiment [20] is SF-539.

As to `[N-]=[N+]=CC(=O)OCC1SCCCS1`, the GI50 is > 100 µM (inactive) in [1]; 89.7 µM (inactive) in [2]; > 100 µM (inactive) in [3]; > 100 µM (inactive) in [4]; > 100 µM (inactive) in [5]; > 100 µM (inactive) in [6]. In addition, the GI50 is > 100 µM (inactive) in experiment [7]; > 100 µM (inactive) in experiment [8]; 74.6 µM (inactive) in experiment [9]; > 100 µM (inactive) in experiment [10]; > 100 µM (inactive) in experiment [11]; > 100 µM (inactive) in [12]. Also, the GI50 in experiment [13], in experiment [14], in experiment [15], in [16], in experiment [17] and in [18] was > 100 µM (inactive) each time. Also, the GI50 in experiment [19] is > 100 µM (inactive).

As to `CCN(CC)CCOc1ccc(N2Cc3ccccc3C2=O)cc1`, the GI50 in experiment [1], in experiment [2], in [4], in experiment [5], in experiment [6] and in [7] was > 10 µM (inactive) throughout. The GI50 in [8] is > 10 µM (inactive); in experiment [9] it was 7.28 µM (inactive); in experiment [10], > 10 µM (inactive); in [11], > 10 µM (inactive); in experiment [12], > 10 µM (inactive); in [13], > 10 µM (inactive). Besides, the GI50 in experiment [20], in experiment [14], in experiment [15], in [16], in experiment [17] and in experiment [18] was > 10 µM (inactive) throughout. Also, the GI50 in experiment [19] was > 10 µM (inactive).

Consider `O=C(O)c1cc2ccccc2c(/N=N\c2cc(C(F)(F)F)ccc2Cl)c1O`, for which the GI50 in [1] is 39.7 µM (inactive); in experiment [2], 38.1 µM (inactive); in experiment [3] it was 23.8 µM (inactive); in experiment [5], > 100 µM (inactive); in [6], 18.3 µM (inactive); in experiment [7] it was 37.4 µM (inactive). The GI50 in experiment [8] is 56.5 µM (inactive); in experiment [9], 38.5 µM (inactive); in experiment [10], 86.9 µM (inactive); in experiment [11], > 100 µM (inactive); in experiment [12], 17.8 µM (inactive); in experiment [13], 35.2 µM (inactive). The GI50 is 99.3 µM (inactive) in experiment [20]; 25.4 µM (inactive) in [14]; 44.9 µM (inactive) in experiment [15]; 1.17 µM (inactive) in experiment [16]; 24.8 µM (inactive) in [17]; 27.5 µM (inactive) in experiment [18].

In the case of `CC[C@@]1(O)C(=O)OCc2c1cc1n(c2=O)Cc2cc3cc4c(cc3nc2-1)OCO4`, the GI50 in experiment [1] is 0.0439 µM (active); in experiment [2], < 0.001 µM (active); in experiment [4], 0.00135 µM (active); in experiment [5], 0.01 µM (active); in [6] it was 0.357 µM (active); in experiment [7] it was 0.00497 µM (active). Besides, the GI50 in experiment [8] is 0.00114 µM (active); in experiment [9], < 0.001 µM (active); in [10], 0.0507 µM (active); in experiment [11], 0.0111 µM (active); in experiment [12], 0.0281 µM (active); in experiment [13], 0.00221 µM (active). For the same compound, the GI50 in [20] was < 0.001 µM (active); in [14] it was 0.0224 µM (active); in experiment [15] it was < 0.001 µM (active); in experiment [16], 0.00152 µM (active); in experiment [17], < 0.001 µM (active); in experiment [18], < 0.001 µM (active). Further, in experiment [19], the GI50 was < 0.001 µM (active).

Turning to `[O-][S+](Nc1ccccc1)c1cccc(Cl)c1` (stereo not drawn), the GI50 in experiment [1] was > 100 µM (inactive); in experiment [2], > 100 µM (inactive); in [3] it was 34.2 µM (inactive); in experiment [4] it was 60.5 µM (inactive); in experiment [5] it was > 100 µM (inactive); in experiment [6], 66.1 µM (inactive). For the same compound, the GI50 is > 100 µM (inactive) in experiment [7]; 42.7 µM (inactive) in experiment [8]; 42.5 µM (inactive) in [9]; > 100 µM (inactive) in [11]; 43.5 µM (inactive) in [12]; 51.1 µM (inactive) in experiment [13]. Further, the GI50 was 27.5 µM (inactive) in experiment [20]; > 100 µM (inactive) in experiment [15]; > 100 µM (inactive) in experiment [16]; 25.5 µM (inactive) in [17]; 53.2 µM (inactive) in [18].

In the case of `CC(=O)N(C)c1ccc(/N=C/N(C)C)cc1`, the GI50 in experiment [1] is > 100 µM (inactive); in experiment [2] it was > 100 µM (inactive); in experiment [4], > 100 µM (inactive); in [5], 82.4 µM (inactive); in [6], > 100 µM (inactive); in experiment [7] it was > 100 µM (inactive). Further, the GI50 in [8], in experiment [10], in experiment [11], in experiment [12], in [13] and in [20] was > 100 µM (inactive) in each case. Further, the GI50 in experiment [14], in experiment [15], in [16], in experiment [17], in [18] and in experiment [19] was > 100 µM (inactive) throughout.

For `c1ccc(NC2(c3nnnn3C3CCCCC3)CCNCC2)cc1`, the GI50 in [1] was 19.8 µM (inactive); in experiment [2], 15.9 µM (inactive); in experiment [3], 15.3 µM (inactive); in [4], 15.7 µM (inactive); in experiment [5] it was 18.5 µM (inactive); in experiment [6] it was 39.6 µM (inactive). Further, the GI50 in experiment [7] was 17.1 µM (inactive); in experiment [8], 23.8 µM (inactive); in experiment [9], 15.2 µM (inactive); in [10], 49.8 µM (inactive); in experiment [11] it was 14.9 µM (inactive); in experiment [12], 22.9 µM (inactive). Besides, the GI50 in [13] was > 10 µM (inactive); in experiment [20], 15.6 µM (inactive); in [15], 36.6 µM (inactive); in experiment [16], 17.5 µM (inactive); in experiment [17], 17.5 µM (inactive); in experiment [18], 16.6 µM (inactive). Also, the GI50 in experiment [19] is 18.3 µM (inactive).

For the compound `Cc1ccc(/C=N/NS(=O)(=O)c2ccc(/C=C3\NC(=O)NC3=O)cc2)cc1`, the GI50 is > 100 µM (inactive) in [1]; 27.6 µM (inactive) in experiment [2]; > 100 µM (inactive) in [3]; > 100 µM (inactive) in [4]; > 100 µM (inactive) in experiment [5]; 37.1 µM (inactive) in [6]. The GI50 in [7] is > 100 µM (inactive); in experiment [8], > 100 µM (inactive); in experiment [9], > 100 µM (inactive); in experiment [10] it was > 100 µM (inactive); in experiment [11] it was 35.9 µM (inactive); in experiment [12], > 100 µM (inactive). Besides, the GI50 in experiment [13] is > 100 µM (inactive); in experiment [14] it was > 100 µM (inactive); in experiment [15] it was > 100 µM (inactive); in experiment [16], 31 µM (inactive); in experiment [17], 31.6 µM (inactive); in [18], 40.8 µM (inactive). Further, the GI50 in experiment [19] is > 100 µM (inactive).
